Source: patent US11000033B2, “Ketone or oxime compound, and herbicide” (NISSAN CHEMICAL CORPORATION, priority 2014, dated 2021)

Tests used:
Type in all cases: in vivo
Scirpus juncoides = test: Test Example 1: herbicidal activity, application before weed generation in submerged conditions (symbol B); details: application herbicide amount 320 g/ha
Outline: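 Weeds are sown into submerged alluvial soil alongside transplanted 2.5-leaf rice, and the compound, as an emulsion diluted to a set rate, is applied onto the water before emergence. Rating on the 0–5 herbicidal-ratio scale follows 3 weeks of greenhouse growth at 25–30 °C.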

Leptochloa chinensis = test: Test Example 3: herbicidal effect by foliage application, Wagner pot (symbol D); details: application herbicide amount 320 g/ha
Outline: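 Plants sown in submerged alluvial soil (water depth 0.1–0.5 cm) in a 25–30 °C greenhouse and grown 14 days. An emulsion of the compound diluted in water to a set herbicide amount was sprayed uniformly on foliage. Effect on each plant scored 3 weeks after application.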

[1] = tested on: directly sowed rice plant; test: Test Example 3: effect on crop by foliage application, Wagner pot (symbol b); details: application herbicide amount 320 g/ha
Outline: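 Steps: fill a 1/10000-are Wagner pot with alluvial soil; add water and mix to submerge at 0.1–0.5 cm depth; sow rice plus Echinochloa crus-galli var. crus-galli, Leptochloa chinensis and Cyperus difformis; grow in a 25–30 °C greenhouse.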

Alopecurus myosuroides [2] = test: Test Example 4: herbicidal effect by soil treatment (symbol J); details: application herbicide amount 320 g/ha
Outline: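 Seeds were sown in sterilized diluvial soil, covered with about 1.5 cm of soil, and the soil surface was sprayed with a water-diluted emulsion of the compound at a predetermined rate. Plants grew in a greenhouse at 25° C. to 30° C.; effects were scored visually 3 weeks after application.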

soybean = test: Test Example 4: effect on crop by soil treatment (symbol d); details: application herbicide amount 320 g/ha
Outline: (§1)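 Grown at 25° C. to 30° C. in a greenhouse, the crops came from seed sown spot-wise in sterilized diluvial soil under roughly 1.5 cm of covering soil.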

rice = test: Test Example 4: effect on crop by soil treatment (symbol b); details: application herbicide amount 320 g/ha
Outline: as §1

Digitaria ciliaris = test: Test Example 5: herbicidal effect by foliage application, plastic box (symbol F); details: 320 g/ha, 3 weeks after application
Outline: (§2)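 Sowing in sterilized diluvial soil, 14 days' greenhouse growth at 25° C. to 30° C., then uniform small-sprayer foliar application of aqueous emulsion dilution; plants scored three weeks afterwards.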

[3] = tested on: Echinochloa crus-galli var. crus-galli; test: Test Example 5: herbicidal effect by foliage application, plastic box (symbol H); details: 320 g/ha, 3 weeks after application
Outline: as §2

Alopecurus myosuroides [4] = test: Test Example 5: herbicidal effect by foliage application, plastic box (symbol J); details: 320 g/ha, 3 weeks after application
Outline: as §2

Apera spica-venti = test: Test Example 5: herbicidal effect by foliage application, plastic box (symbol L); details: 320 g/ha, 3 weeks after application
Outline: as §2

Chenopodium album = test: Test Example 5: herbicidal effect by foliage application, plastic box (symbol O); details: 320 g/ha, 3 weeks after application
Outline: as §2

Galium spurium = test: Test Example 5: herbicidal effect by foliage application, plastic box (symbol Q); details: 320 g/ha, 3 weeks after application
Outline: as §2

Veronica persica = test: Test Example 5: herbicidal effect by foliage application, plastic box (symbol R); details: 320 g/ha, 3 weeks after application
Outline: as §2

rapeseed = test: Test Example 5: effect on crop by foliage application, plastic box (symbol g); details: 320 g/ha, 3 weeks after application
Outline: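 Crop and weed seeds sown in spots in sterilized diluvial soil in plastic boxes and covered with about 1.5 cm soil. Plants raised in a greenhouse at 25° C. to 30° C. for foliar application.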

Compound	Herbicidal effect grade, B: Scirpus juncoides (Scirpus juncoides)	herbicidal effect on D (Leptochloa chinensis), grade 0-5 (Leptochloa chinensis)	effect on crop b (directly sowed rice plant), grade 0-5 [1]	J: Alopecurus myosuroides, herbicidal effect grade (Alopecurus myosuroides [2])	d: soybean, effect on crop grade (soybean)	b: directly sowed rice plant, effect on crop grade (rice)	F: Digitaria ciliaris, herbicidal effect grade (Digitaria ciliaris)	H: Echinochloa crus-galli var. crus-galli, herbicidal effect grade [3]	J: Alopecurus myosuroides, herbicidal effect grade (Alopecurus myosuroides [4])	L: Apera spica-venti, herbicidal effect grade (Apera spica-venti)	O: Chenopodium album, herbicidal effect grade (Chenopodium album)	Q: Galium spurium, herbicidal effect grade (Galium spurium)	R: Veronica persica, herbicidal effect grade (Veronica persica)	g: rapeseed, effect on crop grade (rapeseed)	J (Alopecurus myosuroides) herbicidal effect grade (Alopecurus myosuroides [2])	d (soybean) effect on crop grade (soybean)	b (directly sowed rice plant) effect on crop grade (rice)
CON=C(C)CC1CC(O)=C(c2c(C)cc(-n3cc(Cl)cn3)cc2C)C1=O (mixture of isomers) [6-004]	5 (Herbicidal ratio of 90% or more (almost completely withered))	5 (Herbicidal ratio of 90% or more (almost completely withered))	5 (Herbicidal ratio of 90% or more (almost completely withered))	5 (Herbicidal ratio of 90% or more (almost completely withered))	0 (Herbicidal ratio of 5% or lower (almost no effect))	5 (Herbicidal ratio of 90% or more (almost completely withered))	5 (Herbicidal ratio of 90% or more (almost completely withered))	5 (Herbicidal ratio of 90% or more (almost completely withered))	5 (Herbicidal ratio of 90% or more (almost completely withered))	5 (Herbicidal ratio of 90% or more (almost completely withered))	3 (Herbicidal ratio of 40% or higher and lower than 70%)	3 (Herbicidal ratio of 40% or higher and lower than 70%)	3 (Herbicidal ratio of 40% or higher and lower than 70%)	4 (Herbicidal ratio of 70% or higher and lower than 90%)			
C#CCOC1=C(c2c(C)cc(C)cc2C)C(=O)C(CC(C)=NOC)C1 (stereo not drawn) [1-008]	3 (Herbicidal ratio of 40% or higher and lower than 70%)	5 (Herbicidal ratio of 90% or more (almost completely withered))	5 (Herbicidal ratio of 90% or more (almost completely withered))				5 (Herbicidal ratio of 90% or more (almost completely withered))	4 (Herbicidal ratio of 70% or higher and lower than 90%)	5 (Herbicidal ratio of 90% or more (almost completely withered))	4 (Herbicidal ratio of 70% or higher and lower than 90%)	0 (Herbicidal ratio of 5% or lower (almost no effect))	0 (Herbicidal ratio of 5% or lower (almost no effect))	0 (Herbicidal ratio of 5% or lower (almost no effect))	3 (Herbicidal ratio of 40% or higher and lower than 70%)	5 (Herbicidal ratio of 90% or more (almost completely withered))	0 (Herbicidal ratio of 5% or lower (almost no effect))	3 (Herbicidal ratio of 40% or higher and lower than 70%)
Cc1cc(C)c(C2=C(O)CC(CC(=O)C(C)C)C2=O)c(C)c1 (stereo not drawn) [2-016]	0 (Herbicidal ratio of 5% or lower (almost no effect))	5 (Herbicidal ratio of 90% or more (almost completely withered))	5 (Herbicidal ratio of 90% or more (almost completely withered))	4 (Herbicidal ratio of 70% or higher and lower than 90%)	0 (Herbicidal ratio of 5% or lower (almost no effect))	5 (Herbicidal ratio of 90% or more (almost completely withered))	5 (Herbicidal ratio of 90% or more (almost completely withered))	5 (Herbicidal ratio of 90% or more (almost completely withered))	5 (Herbicidal ratio of 90% or more (almost completely withered))	4 (Herbicidal ratio of 70% or higher and lower than 90%)	0 (Herbicidal ratio of 5% or lower (almost no effect))	0 (Herbicidal ratio of 5% or lower (almost no effect))	0 (Herbicidal ratio of 5% or lower (almost no effect))	4 (Herbicidal ratio of 70% or higher and lower than 90%)			
